# Source: article PMC2582240, “Enhanced A3 adenosine receptor selectivity of multivalent nucleoside-dendrimer conjugates” (Journal of Nanobiotechnology, 2008)
# Legend:
# [1] = test system: ten-min bilateral cerebrovascular occlusion; details: cited from earlier work
# A3 AR [2] = molecular target: T1, A3 AR (Homo sapiens, UniProt P0DMS8); experiment: Radioligand binding at A3 AR ([125I]AB-MECA, CHO cell membranes)
# T1 construct: expressed in transfected cells; host or cells: CHO cells, stably transfected
# T1 sequence (P0DMS8 1-318): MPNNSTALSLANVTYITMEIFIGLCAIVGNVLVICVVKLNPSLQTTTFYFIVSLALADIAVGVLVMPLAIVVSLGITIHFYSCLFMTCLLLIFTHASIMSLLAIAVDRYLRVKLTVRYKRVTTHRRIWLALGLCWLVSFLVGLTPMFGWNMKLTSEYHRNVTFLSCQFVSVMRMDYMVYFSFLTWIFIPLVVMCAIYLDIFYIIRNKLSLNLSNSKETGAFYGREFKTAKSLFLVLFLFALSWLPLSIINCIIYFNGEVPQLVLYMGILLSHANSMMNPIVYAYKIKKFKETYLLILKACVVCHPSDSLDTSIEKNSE
# Description: (§1) CHO (Chinese hamster ovary) cells stably expressing the recombinant human ARs were cultured in Dulbecco's modified Eagle medium (DMEM) and F12 (1:1) supplemented with 10% fetal bovine serum, 100 units/mL penicillin, 100 μg/mL streptomycin, and 2 μmol/mL glutamine. After harvesting, cells were homogenized and suspended. Cells were then centrifuged at 500 g for 10 min, and the pellet was resuspended in 50 mM Tris-HCl buffer (pH 7.5) containing 10 mM MgCl2. The suspension was homogenized and was then recentrifuged at 20 000 g for 20 min at 4°C. The resultant pellets were resuspended in Tris buffer, incubated with adenosine deaminase for 30 min at 37°C, and the suspension was stored at -80°C until the binding experiments. The protein concentration was measured using the BCA Protein Assay Kit from Pierce.
# (§2) Radioligand binding assays were performed for A1 and A2A ARs, following the procedure described previously. Each tube in the binding assay contained 100 μL of membrane suspension (20 μg of protein), 50 μL of agonist radioligand, and 50 μL of increasing concentrations of the test ligands in Tris-HCl buffer (50 mM, pH 7.5) containing 10 mM MgCl2. The concentration of the dendrimer-ligand complexes are measured by the concentration of the dendrimer, not the ligand. Therefore, all Ki values are measured as Ki app values. Nonspecific binding was determined using a final concentration of 10 μM 5'-N-ethylcarboxamidoadenosine diluted with the buffer. The mixtures were incubated at 25°C for 60 min. Binding reactions were terminated by filtration through Whatman GF/B filters under a reduced pressure using a MT-24 cell harvester (Brandell, Gaithersburg, MD). Filters were washed three times with 5 mL of 50 mM ice-cold Tris-HCl buffer (pH 7.5). […] All of the filters were washed 3 times with Tris-HCl, pH 7.5. Filters for A1 and A2A AR binding were placed in scintillation vials containing 5 mL of Hydrofluor scintillation buffer and counted using a Perkin Elmer Liquid Scintillation Analyzer. Filters for A3 AR binding were counted using a Packard Cobra II γ-counter. The Ki values were determined using GraphPad Prism for all assays.
# A2A AR = molecular target: T2, A2A AR (Homo sapiens, UniProt P29274); experiment: Radioligand binding at A2A AR ([3H]CGS21680, HEK cells)
# T2 construct: expressed in transfected cells; host or cells: CHO
# Description: as §1, §2
# A1 AR [3] = molecular target: T3, A1 AR (Homo sapiens, UniProt P30542); experiment: Radioligand binding at A1 AR ([3H]CCPA, CHO cell membranes); details: for Difference in affinity between the human A1 and A3 ARs / Binding at the A1 AR, in words: radioligand binding; for A1 binding, class symbol: inhibition of radioligand binding at 10 μM
# T3 sequence (P30542 1-326): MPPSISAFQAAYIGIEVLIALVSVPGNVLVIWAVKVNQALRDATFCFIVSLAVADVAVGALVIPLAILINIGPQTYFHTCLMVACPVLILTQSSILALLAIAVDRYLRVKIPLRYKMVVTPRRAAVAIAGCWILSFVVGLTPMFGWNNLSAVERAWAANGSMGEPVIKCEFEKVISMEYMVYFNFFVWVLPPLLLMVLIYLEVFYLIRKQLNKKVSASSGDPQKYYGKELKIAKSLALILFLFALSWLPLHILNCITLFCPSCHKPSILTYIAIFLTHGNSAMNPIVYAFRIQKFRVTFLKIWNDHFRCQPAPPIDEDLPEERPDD
# Description: as §1
# Radioligand binding assays were performed for A1 and A2A ARs, following the procedure described previously. Each tube in the binding assay contained 100 μL of membrane suspension (20 μg of protein), 50 μL of agonist radioligand, and 50 μL of increasing concentrations of the test ligands in Tris-HCl buffer (50 mM, pH 7.5) containing 10 mM MgCl2. The concentration of the dendrimer-ligand complexes are measured by the concentration of the dendrimer, not the ligand. Therefore, all Ki values are measured as Ki app values. Nonspecific binding was determined using a final concentration of 10 μM 5'-N-ethylcarboxamidoadenosine diluted with the buffer. The mixtures were incubated at 25°C for 60 min. Binding reactions were terminated by filtration through Whatman GF/B filters under a reduced pressure using a MT-24 cell harvester (Brandell, Gaithersburg, MD). Filters were washed three times with 5 mL of 50 mM ice-cold Tris-HCl buffer (pH 7.5). The radioactive agonists [^3H]2-chloro-N^6-cyclopentyladenosine and [^3H]2-(4-(2-carboxyethyl)phenylethylamino)-5'-N-ethylcarboxamido-adenosine were used for the A1 and A2A assays, respectively. All of the filters were washed 3 times with Tris-HCl, pH 7.5. Filters for A1 and A2A AR binding were placed in scintillation vials containing 5 mL of Hydrofluor scintillation buffer and counted using a Perkin Elmer Liquid Scintillation Analyzer. Filters for A3 AR binding were counted using a Packard Cobra II γ-counter. The Ki values were determined using GraphPad Prism for all assays.
# A1 AR [4] = molecular target: T3, A1 AR; experiment: cAMP assay (inhibition of forskolin-stimulated adenylyl cyclase) in CHO cells expressing A1 AR; type: cell-based; details: for EC50: cAMP inhibition, mean ± SEM, n = 3; for A1 (adenylyl cyclase), class word: at 10 μM, relative to total inhibition by ADAC
# Description: (§3) CHO cells expressing either the A1 or A3 AR were seeded in 24 well plates and incubated at 37°C overnight. The following day the medium was removed and replaced with DMEM containing 50 mM HEPES, 10 μM rolipram, 3 U/ml adenosine deaminase and increasing concentrations of the compounds. After a 30 min incubation at 37°C, 10 μM of forskolin was added to stimulate cAMP levels, and the cells were incubated at 37°C for an additional 15 min. The medium was removed, and the cells were lysed with 200 μl of 0.1 M HCl. 100 μl of the HCl solution was used in the Sigma Direct cAMP Enzyme Immunoassay following the instructions provided with the kit.
# A3 AR [5] = molecular target: T1, A3 AR; experiment: cAMP assay (inhibition of forskolin-stimulated adenylyl cyclase) in CHO cells expressing A3 AR; type: cell-based; details: for EC50: cAMP inhibition, mean ± SEM, n = 3; for A3 (adenylyl cyclase), class word: relative to total inhibition by ADAC
# Description: as §3
# A1 AR [6] = molecular target: T3, A1 AR; experiment: [35S]GTPγS binding assay in CHO A1 membranes; type: biochemical; details: for EC50: mean ± SEM, n = 3
# Description: as §1
# [^35S]GTPγS binding was measured in 200 μl of buffer containing 50 mM Tris-HCl (pH 7.4), 1 mM EDTA, 1 mM MgCl2, 10 μM GDP, 1 mM dithiothreitol, 100 mM NaCl, 3 units/ml adenosine deaminase, 0.2 nM [^35S]GTPγS, 0.004% CHAPS, 0.5% bovine serum albumin and increasing concentrations of the ligands. Samples were started by addition of the membrane suspension (5–10 μg protein/tube) to the test tubes and incubated at 25°C for 30 min. The assay was terminated by rapid filtration through Whatman GF/B filters, pre-soaked in 50 mM Tris-HCl (pH 7.4) containing 5 mM MgCl2 and 0.02% CHAPS. Non-specific binding of [^35S]GTPγS was measured in the presence of 10 μM unlabelled GTPγS. After the filters were washed, they were placed in scintillation vials containing 5 mL of Hydrofluor scintillation buffer and counted using a Perkin Elmer Liquid Scintillation Analyzer. The EC50 values were determined using GraphPad Prism for all assays.
# CHO A3 cells = experiment: Light and fluorescent microscopy of CHO A3 cells; type: cell-based, Chinese hamster; details: 10 μM, 1 h, one wash with PBS, CHO cells stably expressing the A3 AR
# Description: (§4) After one wash with PBS, the cells were imaged at 100× magnification on a Zeiss AxioVision D1 Imager, and both light and fluorescent pictures were obtained.
# (§5) CHO or CHO A3 cells were seeded on a cover disk in a 6 well dish (250,000 cells per well). After the cells were incubated for 24 hrs at 37°C, the medium was removed and replaced with DMEM containing 10 μM of the 15 or 17. The cells were incubated for 1 h at 37°C and washed one time with PBS. The images were taken with at 100× manification using a Zeiss AxioVision D1 Imager equipped with AxioVision 4.5 software.
# CHO cells = experiment: Light and fluorescent microscopy of CHO cells not expressing the A3 AR; type: cell-based, Chinese hamster; details: 10 μM, 1 h, one wash with PBS
# Description: as §4, §5
# [7] = inhibition of radioligand binding at 10 μM
# T2 sequence (P29274 whole entry): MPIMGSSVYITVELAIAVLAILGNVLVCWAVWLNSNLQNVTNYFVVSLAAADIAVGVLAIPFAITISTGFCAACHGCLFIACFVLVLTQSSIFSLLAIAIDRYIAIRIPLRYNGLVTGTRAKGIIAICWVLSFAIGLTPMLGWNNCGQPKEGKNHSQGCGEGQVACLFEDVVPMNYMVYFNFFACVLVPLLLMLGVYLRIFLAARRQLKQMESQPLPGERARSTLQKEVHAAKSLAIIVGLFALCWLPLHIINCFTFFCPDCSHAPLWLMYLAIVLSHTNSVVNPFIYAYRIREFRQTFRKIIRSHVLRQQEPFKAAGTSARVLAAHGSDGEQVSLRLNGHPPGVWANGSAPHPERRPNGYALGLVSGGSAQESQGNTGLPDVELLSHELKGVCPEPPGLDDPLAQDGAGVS
Compound,Ki (A3 AR [2]) [nM],Ki (A2A AR) [nM],Ki (A1 AR [3]) [nM],Difference in affinity between the human A1 and A3 ARs (A1 AR [3]) [fold],EC50 (A1 AR [4]) [nM],EC50 (A3 AR [5]) [nM],EC50 (A1 AR [6]) [nM],"Binding at the A1 AR, in words (A1 AR [3])","A1 (adenylyl cyclase), class word (A1 AR [4])","A3 (adenylyl cyclase), class word (A3 AR [5]; at 10 μM)","A1 binding, class symbol (A1 AR [3])","Inhibition of cAMP production at the A1 AR, in words (A1 AR [4])",other results
"NCCNC(=O)Cc1ccc(NC(=O)Cc2ccc(Nc3ncnc4c3ncn4[C@@H]3O[C@H](CO)[C@@H](O)[C@H]3O)cc2)cc1 [Compound 1, N^6-[4-[[[4-[[[(2-aminoethyl)amino]carbonyl]methyl]anilino]-carbonyl]methyl]phenyl]adenosine, reference compound]",12.2 ± 4.1,370 ± 100,10.4 ± 3.8,< 5,400 ± 80,100 ± 50,94 ± 26,,,,,,Protection against neuronal damage and mortality ([1]; acute or chronic administration prior to occlusion): protects against neuronal damage and mortality; Neuronal protection post-ischemia ([1]; given up to twelve hours post-ischemia): provides neuronal protection
"NCCNCCNC(=O)Cc1ccc(NC(=O)Cc2ccc(Nc3ncnc4c3ncn4[C@@H]3O[C@H](CO)[C@@H](O)[C@H]3O)cc2)cc1 [Compound 7, N-(2-(2-Aminoethylamino)ethyl)-2-(4-(2-(4-(9-((2R,3R,4S,5R)-3,4-dihydroxy-5-(hydroxymethyl)-tetrahydrofuran-2-yl)-9H-purin-6-ylamino)-phenyl)acetamido)phenyl)acetamide]",9.5 ± 2,300 ± 20,43 ± 5,< 5,89 ± 17,36 ± 13,63 ± 14,,,,,,Fold more potent than either ADAC or 4 in adenylyl cyclase assay (A1 AR [4]; A1 AR): 3 – 7 fold; Fold more potent than either ADAC or 4 in adenylyl cyclase assay (A3 AR [5]; A3 AR): 3 – 7 fold; Fold more potent than 4 in activation of GTPγS binding via the A1 AR (A1 AR [6]): 20 fold
G3 PAMAM – 23 Ac – AF488 [Compound 11],,,,,,,,no binding,inactive^c,inactive^c,"NB^b (NB, No binding. Inhibition of radioligand binding < 10% at 10 μM)",unable to significantly inhibit cAMP production,"Inhibition of cAMP production at the A3 AR, in words (A3 AR [5]; at 10 μM): unable to significantly inhibit cAMP production"

# Now from value to compound, other results behind:
Ki (A3 AR [2]) [nM],Ki (A2A AR) [nM],Ki (A1 AR [3]) [nM],Difference in affinity between the human A1 and A3 ARs (A1 AR [3]) [fold],EC50 (A1 AR [4]) [nM],EC50 (A3 AR [5]) [nM],EC50 (A1 AR [6]) [nM],"Binding at the A1 AR, in words (A1 AR [3])","A1 (adenylyl cyclase), class word (A1 AR [4])","A3 (adenylyl cyclase), class word (A3 AR [5]; at 10 μM)",Compound,"A1 binding, class symbol (A1 AR [3])","Inhibition of cAMP production at the A1 AR, in words (A1 AR [4])",other results
74 ± 20,800 ± 360,30 ± 9,< 5,350 ± 20,140 ± 70,1300 ± 400,,,,"O=C(O)CCc1ccc(NC(=S)NCCNC(=O)Cc2ccc(NC(=O)Cc3ccc(Nc4ncnc5c4ncn5[C@@H]4O[C@H](CO)[C@@H](O)[C@H]4O)cc3)cc2)cc1 [Compound 4, 3-(4-(3-(2-(2-(4-(2-(4-(9-((2R,3R,4S,5R)-3,4-Dihydroxy-5-(hydroxymethyl)tetrahydrofuran-2-yl)-9H-purin-6-ylamino)phenyl)acetamido)-phenyl)acetamido)ethyl)thioureido)phenyl)pro-panoic acid]",,,
,,,,,,,no binding,inactive^c,inactive^c,G2.5 PAMAM – AF488 [Compound 15],"NB^b (NB, No binding. Inhibition of radioligand binding < 10% at 10 μM)",no binding or activity,"Fluorescent binding to cells (CHO A3 cells): Neither type of CHO cells were bound; A3 binding, class symbol (A3 AR [2]; [7]): NB^b (NB, No binding. Inhibition of radioligand binding < 10% at 10 μM); Fluorescent binding to cells (CHO cells): Neither type of CHO cells were bound; A2A binding, class symbol (A2A AR; [7]): NB^b (NB, No binding. Inhibition of radioligand binding < 10% at 10 μM)"
